Measured values from patent publication US4839465A, “Di-(D-tryptophyl and/or tetrahydropyridoindolylcarbonyl)-containing peptide amides and process for preparation thereof” (Sterling Drug Inc., priority 1987, dated 1989).
Like-named read-outs stand apart in the source and are kept apart here. Where a SMILES comes first, the peptide text is derived from it. [ ]: non-standard residue; d: D form. Tpi = O=C(O)[C@@H]1Cc2c([nH]c3ccccc23)CN1; dTpi = O=C(O)[C@H]1Cc2c([nH]c3ccccc23)CN1

Key:
[1] = system: Substance P effect in isolated guinea pig ileum longitudinal muscle; test: Guinea pig ileum test, Substance P agonist and antagonist effect; format: cell-based
Procedure: Strips of longitudinal muscle (derived from terminal ileum of adult male guinea pigs (Charles River, 400-600 g.) are mounted in 5-ml. organ baths containing oxygenated Krebs solution containing 1 μM each of atropine and pyrilamine maintained at 30°-33° C. and connected to isometric transducers. Following tissue equilibration and repeated washing (45-60 min.), SP or an appropriate reference agonist is added cumulatively to the bath and contractions of the tissue are recorded. The bath is washed thoroughly and 30-45 min. is allowed to elapse before construction of a second reference agonist curve to assure reproducibility of the responses. Test compounds are similarly evaluated for agonist activity up to a maximum concentration of 10-100 μM. Regression analysis of the linear portion of the log concentration-percent maximal response curves provides the EC50 (and 95% confidence limits), the standard measure of agonist potency. When appropriate, relative molar potency ratios are calculated (EC50 reference/ED50 test drug). Antagonist activity is examined by pretreating thoroughly washed tissues with test compound (using a standard 5-10 min. contact time), then constructing a cumulative dose-response curve to the reference agonist. The effects of several concentrations of test antagonist, pooled across separate experiments, provide dose-ratio (EC50 shift) data for a standard Schild plot analysis, with computation of the pA2.

[2] = target: T1, SP receptor (rat brain tissue) (Rattus norvegicus, UniProt P14600); test: Rat brain tissue 3H-SP competitive binding; conditions: for Kd: crude rat brain tissue, 3H-SP, read-out: Substance P Competitive Binding KD; for effect on 3H-SP binding: specificity and sensitivity of the binding assay, rat brain tissue
T1 construct: from tissue; host or cells: crude rat brain tissue
T1 sequence (P14600 whole entry): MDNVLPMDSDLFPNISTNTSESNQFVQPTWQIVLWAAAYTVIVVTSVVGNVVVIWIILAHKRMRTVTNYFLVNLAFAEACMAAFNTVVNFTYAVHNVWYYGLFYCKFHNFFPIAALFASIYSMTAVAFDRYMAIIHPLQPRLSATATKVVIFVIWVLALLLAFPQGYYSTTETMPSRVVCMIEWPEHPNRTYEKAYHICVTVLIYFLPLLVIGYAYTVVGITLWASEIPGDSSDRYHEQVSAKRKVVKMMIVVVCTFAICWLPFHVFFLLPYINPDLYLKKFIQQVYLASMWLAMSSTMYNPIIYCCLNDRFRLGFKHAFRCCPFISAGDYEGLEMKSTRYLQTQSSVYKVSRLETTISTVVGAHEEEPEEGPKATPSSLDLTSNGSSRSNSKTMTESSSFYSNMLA
Procedure: Crude rat brain tissue is suspended in buffer containing protease inhibitors and calcium ions and magnesium ions and incubated under nitrogen atmosphere with ^3 H-SP and test compound. The bound SP is then separated from free SP by filtration and quantitated by liquid scintillation spectroscopy. This test meets the criteria of reversibility,saturability, sensitivity to known SP agonists and antagonists, and specificity for an SP receptor binding assay.
With regard to reversibility, addition of unlabelled SP causes a gradual decrease in bound ^3 H-SP, showing that SP is not irreversibly bound to the receptors in the tissue. With regard to saturability, the amount of bound ^3 H-SP in the preparation increases in direct proportion to the concentration of ^3 H-SP added until a saturation point is reached. […] With regard to sensitivity, known SP agonists and antagonists inhibit ^3 H-SP binding.
The results are expressed in terms of the equilibrium constant KD in nanomoles per liter (nM), which takes into account the concentration of ^3 H-SP.

[3] = system: acetylcholine-induced writhing; test: Mouse acetylcholine-induced writhing test; format: in vivo; conditions: intrathecal, acetylcholine 3.2 mg./kg. i.p. five minutes after injection
Procedure: Male Swiss-Webster mice (18-24 g.) are divided into groups of 8-15 mice. A test compound in a vehicle or the vehicle alone is administered intrathecally in a volume of 5 μl by the method of Hylden and Wilcox (European Journal of Pharmacology, vol. 67, pp. 313-316, 1980) except that caudal cutaneous incision is not performed prior to injection. Five minutes after the injection a solution of acetylcholine (3.2 mg./kg., the approximate ED90) in 0.9% aqueous sodium chloride is administered intraperitoneally to each mouse. […] For test compounds which produce a graded dose-response ED50 values with 95% confidence limits are determined by probit analysis of the data.

[4] = system: gastric juice secretion; conditions: in vivo; cited from earlier work
[5] = Schild plot, 5-10 min. contact time, guinea pig ileum longitudinal muscle

| Molecule | Kd [2] [nM] | Substance P Antagonist pA2 [1, 5] | also measured |
| --- | --- | --- | --- |
| CSCC[C@H](NC(=O)[C@H](CC(C)C)NC(=O)[C@@H](Cc1c[nH]c2ccccc12)NC(=O)[C@H](Cc1ccccc1)NC(=O)[C@H](N)Cc1c[nH]c2ccccc12)C(N)=O [Example 1, H--trp--Phe--trp--Leu--Met--NH2] (H-[dW]F[dW]LM-NH2) |  |  | EC50 [1]: > 1000 nM; Substance P agonist activity ([1]; guinea pig ileum, not quantified): Some agonist activity was noted |
| CC(C)C[C@H](NC(=O)[C@@H](Cc1c[nH]c2ccccc12)NC(=O)[C@H](Cc1ccccc1)NC(=O)[C@@H](Cc1c[nH]c2ccccc12)NC(=O)[C@@H]1CCCN1)C(=O)N[C@@H](Cc1ccccc1)C(N)=O [Example 2, H--Pro--trp--Phe--trp--Leu--Phe--NH2] (H-P[dW]F[dW]LF-NH2) | 22 | 6.4 |  |
| CC(C)C[C@H](NC(=O)[C@@H](Cc1c[nH]c2ccccc12)NC(=O)[C@H](Cc1ccccc1)NC(=O)[C@@H](Cc1c[nH]c2ccccc12)NC(=O)[C@@H]1CCCN1)C(N)=O [Example 3, H--Pro--trp--Phe--trp--Leu--NH2] (H-P[dW]F[dW]L-NH2) | 35 | 5.1 |  |
| CSCC[C@H](NC(=O)[C@H](CC(C)C)NC(=O)[C@@H](Cc1c[nH]c2ccccc12)NC(=O)[C@H](Cc1ccccc1)NC(=O)[C@H]1Cc2c([nH]c3ccccc23)CN1)C(N)=O [Example 4, H--tpi--Phe--trp--Leu--Met--NH2] (H-[dTpi]F[dW]LM-NH2) | 42 | 6.4 | ED50, protection against acetylcholine-induced writhing [3]: 0.7 μg/mouse |
| CSCC[C@H](NC(=O)[C@H](CC(C)C)NC(=O)[C@@H](Cc1c[nH]c2ccccc12)NC(=O)[C@H](Cc1ccccc1)NC(=O)[C@@H]1Cc2c([nH]c3ccccc23)CN1)C(N)=O [Example 5, H--Tpi--Phe--trp--Leu--Met--NH2] (H-[Tpi]F[dW]LM-NH2) | 59 |  |  |
| CC(C)C[C@H](NC(=O)[C@H]1Cc2c([nH]c3ccccc23)CN1C(=O)[C@H](Cc1ccccc1)NC(=O)[C@@H](Cc1c[nH]c2ccccc12)NC(=O)[C@@H]1CCCN1)C(=O)N[C@@H](Cc1ccccc1)C(N)=O [Example 6, H--Pro--trp--Phe--tpi--Leu--Phe--NH2] (H-P[dW]F[dTpi]LF-NH2) | 39 | 6.4 |  |
| CC(C)C[C@H](NC(=O)[C@@H](Cc1c[nH]c2ccccc12)NC(=O)[C@H](Cc1ccccc1)NC(=O)[C@H](N)Cc1c[nH]c2ccccc12)C(=O)N[C@@H](Cc1ccccc1)C(N)=O [Example 8, H--trp--Phe--trp--Leu--Phe--NH2] (H-[dW]F[dW]LF-NH2) |  |  | Substance P Antagonist pA2 [1]: 6.28 |
| CC(C)C[C@H](NC(=O)[C@@H](Cc1c[nH]c2ccccc12)NC(=O)[C@H](Cc1ccccc1)NC(=O)[C@H]1Cc2c([nH]c3ccccc23)CN1)C(=O)N[C@@H](Cc1ccccc1)C(N)=O [Example 9, H--tpi--Phe--trp--Leu--Phe--NH2] (H-[dTpi]F[dW]LF-NH2) |  |  | Substance P Antagonist pA2 [1]: 6.65 |
| NCC(CC(=O)O)c1ccc(Cl)cc1 (stereo not drawn) [baclofen, reference compound] |  |  | effect on 3H-SP binding [2]: do not affect |
| COc1cc(CNC(=O)CCCC/C=C/C(C)C)ccc1O [capsaicin, reference compound] |  |  | effect on 3H-SP binding [2]: do not affect |
| H--Tpi--Bpa--trp--Leu--Phe--NH2 H--Tpi--bpa--trp--Leu--Phe--NH2 (mixture of isomers) [Example 7, H--Tpi--Bpa--trp--Leu--Phe--NH2 H--Tpi--bpa--trp--Leu--Phe--NH2 (mixture of isomers)] |  | 6.25 |  |
| Z--Tca--Met--Asp--Phe--NH2 [Tca-tetragastrin] |  |  | gastric juice stimulating activity [4]: having gastric juice stimulating activity |
